Experiments:
HeLa cells = assay: Percentage of peptide remained in HeLa cell lysate; assay type: in vitro ADME; details: 200 μM alone or with 100 nM BTZ, 1 h; cell lysate or culture medium
[1] = Self-assembly: hydrogelation and nanofiber formation; assay type: physicochemical; details: 500 μM, TEM images

| Substance | Degradation in HeLa cells compared with 1 (in words) (HeLa cells) | Nanofiber formation (TEM) [1] |
| --- | --- | --- |
| Nap-Phe-Phe-Glu [compound 3] | degrade slower than 1 | can form nanofibers |
| Nap-Phe-Phe-Asn [compound 2] | degrade slower than 1 | can form nanofibers |

From PMC6242746 (Chemistry, an Asian journal, 2018)
